The source of these data is US4031219A, “Bis-homophthalimides and salts thereof” (Boehringer Ingelheim GmbH, priority 1975, dated 1977).

Values after ≈ are worked out from the molar mass of the structure shown. Like-named read-outs stand apart in the source and are kept apart here.

Data set [1] deals with isolated electrically stimulated left auricle of the guinea pig. Description: Effect on the effective refractory period of the isolated electrically stimulated left auricle of the guinea pig (maximum driving frequency). To be noted: Cavia porcellus, Tyrode solution 37° C, mean change 5 and 10 minutes after addition, graphically determined from dose-response-curves, read-out: EC50 (concentration which reduces the maximum driving frequency by 50%). On the procedure: 1. Effect on the effective refractory period of the isolated electrically stimulated left auricle of the guinea pig
Guinea pigs of both sexes were killed by a blow on the neck. After opening the thorax, the heart was quickly removed and transferred to a Tyrode solution (37° C). The auricles were therein dissected, and only the left auricles were used. Electrical stimulation was performed by a Grass Stimulator, S4G, with square wave impulses of 1 millisecond duration and a stimulation voltage of 12 V. The auricles were suspended in Tyrode solution at 37° C containing NaCl: 136.8 mval/liter; KCl: 2.68 mval/liter; MgCl2 : 0.2625 mval/liter; NaH2 PO4 : 0.417 mval/liter; NaHCO3 : 11.9 mval/liter; CaCl2 : 1.8 mval/liter; glucose: 3 gm. The solution was continuously oxygenated with 98% O2 and 2% CO2. The isometric contractions were measured with a force-displacement transducer and recorded on a Grass-polygraph (P5).
The auricles were stimulated with 0.5 Hz. The maximum driving frequency was measured by increasing the stimulation rate every 10 seconds by 1 Hz. Measurements were performed three times every 5 minutes before and 5 and 10 minutes after the addition of the test compound. During the rest periods between the measurements the stimulation frequency was 0.5 Hz.
The effect of the compound was calculated as the mean change of maximum driving frequency 5 and 10 minutes after adding the compound. The compound was tested by increasing the concentration to obtain dose-response-curves and to calculate the EC50.
The maximum driving frequency is measured by increasing the stimulation rate. When the interval between two stimuli is shortened, a stimulation rate is reached at which every second stimulation falls into the refractory period of the foregoing contraction and will not be answered with a contraction. Thus, the maximum driving frequency is a measure for the effective refractory period. Compounds which reduce the maximum driving frequency prolong the refractory period.
From the dose-response-curves the following concentrations, which reduce the maximum driving frequency by 50%, were graphically determined: […]

Data set [2] deals with chloroform-induced ventricular fibrillation in mice. As to the kind of experiment: Antiarrhythmic activity against chloroform-induced ventricular fibrillation in mice. The format is in vivo. The settings on record: Mus musculus, iv, 1 minute before inducing ventricular fibrillation; male mice 20-25 gm; read-out: ED50 (dose which reduces the number of animals which show fibrillations by 50%). On the procedure:
2. Antiarrhythmic activity against chloroform-induced ventricular fibrillation in mice
Upon putting a mouse into a chloroform-saturated atmosphere, the animal is anaesthetized after 40 seconds, the spontaneous respiration stops, and after 20 seconds more, gasping respiration is seen.
During 1 minute after opening the thorax spontaneous ventricular fibrillation can be obtained in nearly all the animals or can be induced in others by touching the heart with tweezers.
Pretreatment with antiarrhythmic compounds reduces the number of animals which show fibrillations in a dose-dependent way. The dose which reduces the number of animals by 50% (ED50) is calculated by means of dose-response-curves, and the standard error is determined [Miller, L.C. and Tainter, M.L., Proc. Soc. Exp. Biol. Med. 57, 261 (1944)].
The tests were performed on male mice having a body weight of 20-25 gm. Each dose was tested on 10 animals.
The compounds were administered intravenously 1 minute before inducing ventricular fibrillation.

Data set [3] in a line: Acute toxicity in mice. To be noted: mouse, in vivo, observation time: 14 days. On the procedure: The acute toxicity of the test compounds was determined in mice (observation time: 14 days) after oral and/or intravenous application. The LD50 was calculated from the percentage of animals which died within the observation time after administration of various doses [see J. Pharmacol. exp. Therap. 96, 99 (1949)].

The mark [4] stands for this setting: intravenous, read-out: LD50 i.v.

By ED50 is commonly meant the midpoint of the dose-response relation. For orientation: LD50 means the dose at which mortality reaches 50%.

Take `CN(CCCN1C(=O)c2ccccc2C(C)(C)C1=O)CCCN1C(=O)c2ccccc2C(C)(C)C1=O` [A, n,n-bis-[3-(3,4-dihydro-4,4-dimethyl-1,3-dioxo-2-(1H)-isoquinolyl)-propyl]-methylamine]: the EC50 in data set [1] stood at 5.5 mg/L (≈ 11.2 µM). The ED50 in data set [2] is 1.2 mg/kg.

With `CC1(C)C(=O)N(CCCNCCCN2C(=O)c3ccccc3C(C)(C)C2=O)C(=O)c2ccccc21` [B, N,N-bis-[3-(3,4-dihydro-4,4-dimethyl-1,3-dioxo-2(1H)-isoquinolyl)propyl]-amine], the EC50 in data set [1] came out at 8 mg/L (≈ 16.8 µM). For the same molecule, in data set [2], the ED50 was 2.5 mg/kg. The LD50 at 336 h in data set [3] (oral, read-out: LD50 p.o.) amounted to 123 mg/kg.

With `CCN(CCCN1C(=O)c2ccccc2C(C)(C)C1=O)CCCN1C(=O)c2ccccc2C(C)(C)C1=O` [C, n,n-bis-[3-(3,4-dihydro-4,4-dimethyl-1,3-dioxo-2(1H)-isoquinolyl)-propyl]-ethylamine], in data set [1], the EC50 was found to be 2 mg/L (≈ 3.97 µM). The ED50 in data set [2] stood at 0.5 mg/kg.

`COc1ccc2c(c1)C(=O)N(CCN(C)CCCN1C(=O)c3ccccc3C(C)(C)C1=O)C(=O)C2(C)C` [D, n-[2-(3,4-dihydro-7-methoxy-4,4-dimethyl-1,3-dioxo-2-(1H)-isoquinolyl)-ethyl]-N-[3-(3,4-dihydro-4,4-dimethyl-1,3-dioxo-2(1H)-isoquinolyl)-propyl]-methylamine]: the EC50 in data set [1] stood at 4.2 mg/L (≈ 8.31 µM). Moreover, the ED50 in data set [2] turned out to be 3.6 mg/kg.

For `CN(CCN1C(=O)c2ccccc2C(C)(C)C1=O)CCN1C(=O)c2ccccc2C(C)(C)C1=O` [F, n,n-bis-[2-(3,4-dihydro-4,4-dimethyl-1,3-dioxo-2(1H)-isoquinolyl)-ethyl]-methylamine], the 50% effective dose (ED50) in data set [2] turned out to be 4.6 mg/kg.

`CC1(C)C(=O)N(CCCNCCN2C(=O)c3ccccc3C(C)(C)C2=O)C(=O)c2ccccc21` [G, n-[2-(3,4-dihydro-4,4-dimethyl-1,3-dioxo-2(1H)-isoquinolyl)-ethyl]-N-[3-(3,4-dihydro-4,4-dimethyl-1,3-dioxo-2(1H)-isoquinolyl)-propyl]-amine]: in data set [1], the EC50 came out at 2.7 mg/L (≈ 5.85 µM). Also, the ED50 in data set [2] came to 4.7 mg/kg.

On to `CC1(C)C(=O)N(CCCCNCCCN2C(=O)c3ccccc3C(C)(C)C2=O)C(=O)c2ccccc21` [H, [3-(3,4-dihydro-4,4-dimethyl-1,3-dioxo-2(1H)-isoquinolyl)-propyl]-[4-(3,4-dihydro-4,4-dimethyl-1,3-dioxo-2(1H)-isoquinolyl)-butyl]-amine], for which the EC50 in data set [1] turned out to be 10 mg/L (≈ 20.4 µM). Also, the median effective dose (ED50) in data set [2] was found to be 3 mg/kg.

For the molecule `CC1(C)C(=O)N(CCNCCN2C(=O)c3ccccc3C(C)(C)C2=O)C(=O)c2ccccc21` [I, bis-[2-(3,4-dihydro-4,4-dimethyl-1,3-dioxo-2(1H)-isoquinolyl)-ethyl]-amine], the EC50 in data set [1] was determined as 2.2 mg/L (≈ 4.92 µM). Also, the ED50 in data set [2] was determined as 4.7 mg/kg. The LD50 at 336 h in data set [3] (setting [4]) came to 15 mg/kg; in data set [3] (oral, read-out: LD50 p.o.) it was 315 mg/kg.

As to `CC1(C)C(=O)N(CCCCNCCN2C(=O)c3ccccc3C(C)(C)C2=O)C(=O)c2ccccc21` [J, [2-(3,4-dihydro-4,4-dimethyl-1,3-dioxo-2(1H)-isoquinolyl)-ethyl]-[4-(3,4-dihydro-4,4-dimethyl-1,3-dioxo-2(1H)-isoquinolyl)-butyl]-amine], the EC50 in data set [1] is 1.8 mg/L (≈ 3.78 µM). Moreover, the ED50 in data set [2] was found to be 2.8 mg/kg. Further, the LD50 at 336 h worked out at 10.5 mg/kg in data set [3] (setting [4]) and 210 mg/kg in data set [3] (oral, read-out: LD50 p.o.).
